{"source": "patent US8921414B2", "about": "“Spiroketals” (EcoBiotics Ltd, priority 2005, dated 2014)", "key": {"[1]": {"tested_on": "a human tumor cell line", "assay": "Preliminary screen of growth-inhibiting activity of derivatised EBI-23, EBI-24, EBI-25", "type": "cell-based", "settings": "growth inhibition", "protocol": "A series of derivatisation reactions were conducted on 1 mg amounts of EBI-23, EBI-24, and EBI-25. Mass spectra were run to confirm the nature of the derivatives but the product(s) weren't purified for this preliminary screen of growth-inhibiting activity in a human tumor cell line. The results were compared on the assumption that no losses occurred during derivatisation."}, "[2]": {"tested_on": "Bacillus subtilis", "assay": "ProTOX (Bs) antibacterial bioassay", "type": "cell-based", "settings": "for Bs LD99: weight of chemical in last well with activity, real value may be lower", "from_the_text": "ProTOX, (alternatively referred to herein as Bs) is an antibacterial bioassay, broadly applicable to most aerobic and anaerobic bacteria. The bioassay features a solid phase agar base into which the test compound has been incorporated together with a chromogen. As the bacteria multiply in the well, the chromogen is metabolised from blue in a two-step process to a colourless compound. Compounds with potent bactericidal activity inhibit bacterial metabolism of the chromogen while bacteriostatic compounds induce limited metabolism as indicated by an intermediate pink colour. ProTOX is broadly applicable to a range of gram-positive and gram-negative bacteria under aerobic and microaerophilic conditions. ProTOX assays were carried out using Bacillus subtilis. Briefly, in ProTOX, the bacteria (24 hour broth) were applied to the surface of an agar matrix containing the test sample and allowed to grow for 48 h. The assay was monitored at 24 and 48 hours and the active wells noted. Known antibiotics yield consistent colour transitions which are concentration and time dependent. These patterns provided an important guide to the early recognition of interesting characteristics."}, "[3]": {"tested_on": "K562 leukemia", "assay": "Cell growth inhibition (Table 22), K562", "type": "cell-based", "settings": "Homo sapiens, read-out: IC50 (drug dose which inhibits cell growth by 50%) K562", "protocol": "(§1) The isolated compounds were tested against a number of human and non-human cancer cell lines. The human tumor cell lines were: MCF-7, MDA-MB-231 and T47D, breast cancer; DU145 and PC3, prostate cancer; CI80-13S, ovarian cancer; MM96L, D04, SkMel5, MM418c5 melanoma; HT29, colon cancer; K562 and HL60, leukemia. Mouse cell lines were the B16 mouse melanoma and LK2 UV-induced squamous cell carcinoma (SCC). Neonatal foreskin fibroblasts (NFF) were used as normal control cells. Cells were cultured at 37° C. in 5% carbon dioxide/air, in RPMI 1640 medium containing 10% fetal calf serum."}, "[4]": {"tested_on": "Drosophila melanogaster", "assay": "DipteraTOX insecticidal bioassay", "set-up": "key: A value of A in DipG, Dip P or Dip H represents very active; a value of P represents active", "settings": "250 μg per mL in agar", "protocol": "DipteraTOX. DipteraTOX is referred to herein as DipG, DipP and DipH. DipG represents no grazing of larva. DipP represents no pupae formation and Dip H represents no hatching of flies. A value of A in DipG, Dip P or Dip H represents very active and a value of P represents active. In DipteraTox the fly eggs are applied to the surface of an agar matrix containing 250 μg per mL of the test chemical and allowed to hatch, develop and pupate for a period up of two weeks. The assay was monitored at two discrete times to determine the extent of grazing of the agar matrix at Week 1 and the presence of adult flies at Week 2. […] Drosophila melanogaster was utilised for this assay."}, "[5]": {"tested_on": "ovarian C180-13S", "assay": "Additional in vitro activity: antitumor activity, C180-13S", "type": "cell-based, human", "settings": "concentration with activity"}, "[6]": {"tested_on": "PC3 prostate cancer", "assay": "Cell growth inhibition (Table 22), PC3", "type": "cell-based", "settings": "Homo sapiens, PC-3; read-out: IC50 (drug dose which inhibits cell growth by 50%) PC3", "protocol": "as §1"}, "[7]": {"tested_on": "B16 mouse melanoma", "assay": "Cell growth inhibition (Table 22), B16", "type": "cell-based", "settings": "read-out: IC50 (drug dose which inhibits cell growth by 50%) B16", "protocol": "as §1"}, "[8]": {"tested_on": "human peripheral blood lymphocytes (PBMC) with gamma-irradiated LCL", "assay": "Inhibition of the mixed lymphocyte reaction (MLR)", "type": "cell-based", "settings": "[3H]-thymidine on Day 4", "protocol": "(§2) Gamma-irradiated lymphoblastoid cells (LCL, Esptein-Barr virus-transformed B-cells; 17,000) were added to human peripheral blood lymphocytes (PBMC; 50,000 per microtitre well), then the drug, incubated at 37 C as above and labeled with [3H]-thymidine on Day 4. Cells were lysed and washed onto glass fibre mats for scintillation counting. The same drug concentrations were tested for direct toxicity by assay on control LCL (10,000 cells/well).\nThe MLR measures the ability of normal human T-cells to undergo a proliferative response to allo antigens expressed by a non-proliferating B-cell line. […] This was not due to general toxicity because the growth of control LCLs was unaffected."}, "[9]": {"tested_on": "B16 melanoma", "assay": "Inhibition of B16 melanoma growth in C57BL/6 mice", "type": "in vivo", "protocol": "After a preliminary experiment to determine the MTD in mice, C57BL/6 mice were implanted with B16 melanoma cells (0.5 million cells per site, 2 sites per mouse sc, 3 mice/group) and treatment commenced 24 hours later. For this initial study, EBI-23 was prepared by diluting an ethanol solution into saline, such that the final ethanol level was 2%. The cloudy solution thus obtained was injected intraperitoneally into mice every day for 7 days. Tumor size and body weight were measured over time."}, "[10]": {"tested_on": "several cell lines", "assay": "Morphological and cell cycle effects (flow cytometry)", "type": "cell-based", "settings": "24 hour treatment, 1 μg/mL", "from_the_text": "This tends to rule out targets such as PKC (prototype compound PMA), DNA damage (prototype cisplatin), kinases (prototype staurosporine), mitochondria or the plasma membrane (cell lysis).\nThis was not accompanied, however, by the typical rounded morphology of cells treated with tubulin ligands."}, "[11]": {"tested_on": "control LCL (lymphoblastoid cells)", "assay": "Direct toxicity on control LCL", "type": "cell-based, human", "settings": "same drug concentrations as MLR (1 μg/mL)", "protocol": "as §2"}, "[12]": {"tested_on": "Trichophyton rubrum", "assay": "MycoTOX (Tr) antifungal bioassay", "type": "cell-based", "protocol": "MycoTOX (alternatively referred to herein as Tr) is a non-chromogenic bioassay used to detect activity against filamentous fungal pathogens of plants and animals. The bioassay features a solid phase agar base into which the test compound has been incorporated. As the growth patterns of filamentous fungi are readily apparent on the agar surface the extent of mycelial growth, sporulation (if relevant to the species under investigation) and colour changes with maturation are measured.\nMycoTOX, involves a fungus (spore suspension or mycelial fragments) applied to the surface of an agar matrix containing the test chemical and allowed to grow for a period of up to a week (depending on species). The assay was monitored at two discrete times to identify key development phases in the life cycle (for example mycelial growth and extent of sporulation) and the active wells noted. The monitoring times were dependent on the fungal species under investigation.\nThe MycoTOX assays were carried out using Trichophyton rubrum."}}}
{"smiles": "CC/C=C/CCCCCCCCCCCC(O)CC1CC(O)CC2(CC3OC(=O)C=CC3O2)O1", "note": "(stereo not drawn) [EBI-24]", "values": [{"measurement": "fold less potent than EBI-23", "setting": "[1]", "result": 10, "unit": "fold"}, {"measurement": "Bs LD99", "setting": "[2]", "result": 13, "unit": "µg/mL"}, {"measurement": "IC50", "setting": "[3]", "result": 0.6, "unit": "µg/mL"}, {"measurement": "DipH (no hatching of flies)", "setting": "[4]", "result": "P/P"}, {"measurement": "DipP (no pupae formation)", "setting": "[4]", "result": "P/P"}, {"measurement": "antitumor activity against ovarian C180-13S at", "setting": "[5]", "result": 3, "unit": "µg/mL"}]}
{"smiles": "CCCCCCCCCCCCCC(O)CC1CC(O)CC2(CC3OC(=O)C=CC3O2)O1", "note": "(stereo not drawn) [EBI-23]", "values": [{"measurement": "IC50", "setting": "[6]", "result": 1, "unit": "µg/mL"}, {"measurement": "Bs Titre", "setting": "[2]", "result": 16}, {"measurement": "Bs LD99", "setting": "[2]; listed as EB77.LA4.92-100", "result": 3.9, "unit": "µg/mL"}, {"measurement": "Bs LD99", "setting": "[2]; listed as EB116.LA3.31-27/32", "result": 3.1, "unit": "µg/mL"}, {"measurement": "Bs LD99", "setting": "[2]; listed as EB116.LA3.60-40/42", "result": 6.3, "unit": "µg/mL"}, {"measurement": "IC50", "setting": "[7]", "result": 0.5, "unit": "µg/mL"}, {"measurement": "concentration found to inhibit the MLR", "setting": "[8]", "result": 1, "unit": "µg/mL"}, {"measurement": "B16 growth", "setting": "[9]; 80 μg (per mouse per day) intraperitoneally", "result": "measurable response"}, {"measurement": "B16 growth", "setting": "[9]; 250 μg/mouse/day intraperitoneally", "result": "significant reduction"}, {"measurement": "body weight", "setting": "[9]; higher dose (250 μg/mouse/day)", "result": "some weight loss"}, {"measurement": "tolerability of regime", "setting": "[9]; intraperitoneal daily dosing, C57BL/6 mice", "result": "tolerated this regime well"}, {"measurement": "DNA fragments (apoptosis)", "setting": "[10]", "result": "No DNA fragments were detected"}, {"measurement": "cell cycle effect by flow cytometry", "setting": "[10]", "result": "variable degree of G2/M arrest"}, {"measurement": "IC50", "setting": "[3]", "result": 1.7, "unit": "µg/mL"}, {"measurement": "DipP (no pupae formation)", "setting": "[4]", "result": "P"}, {"measurement": "growth of control LCLs", "setting": "[11]", "result": "unaffected"}, {"measurement": "Tr Titre", "setting": "[12]", "result": 0}, {"measurement": "antitumor activity against ovarian C180-13S at", "setting": "[5]", "result": 1, "unit": "µg/mL"}]}
